Assay results reported in patent US20260285850A1, “SUBSTITUTED OXAZOLIDINONES AND IMIDAZOLINONES AS HERBICIDES” (FMC CORPORATION, priority 2023, published 2026).

Key:
Assay type in all cases: in vivo
[1] = tested on: ryegrass, Italian (italian ryegrass, Lolium multiflorum); experiment: Test A preemergence soil spray, visual injury rating 0-100; conditions: 10 days
How it was run: (§1)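 Greenhouse test: loam/sand pots received a surfactant-containing formulation, as a preemergence directed soil spray or a postemergence spray on young plants. Injury was judged visually at day 10 relative to untreated controls.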

[2] = tested on: blackgrass (Alopecurus myosuroides); experiment: as above; conditions: 10 days
How it was run: as §1

[3] = tested on: green foxtail (Setaria viridis); experiment: as above; conditions: 10 days
How it was run: as §1

[4] = tested on: soybean (Glycine max); experiment: as above; conditions: 10 days
How it was run: as §1

[5] = tested on: oat, wild (wild oat, Avena fatua); experiment: as above; conditions: 10 days
How it was run: as §1

[6] = tested on: wheat (Triticum aestivum); experiment: as above; conditions: 10 days
How it was run: as §1

[7] = tested on: ragweed (common ragweed, Ambrosia artemisiifolia); experiment: as above; conditions: 10 days
How it was run: as §1

[8] = tested on: barnyardgrass (Echinochloa crus-galli); experiment: as above; conditions: 10 days
How it was run: as §1

[9] = tested on: kochia (Bassia scoparia); experiment: as above; conditions: 10 days
How it was run: as §1

[10] = tested on: corn (Zea mays); experiment: as above; conditions: 10 days
How it was run: as §1

[11] = tested on: palmer (palmer amaranth, palmer pigweed, Amaranthus palmeri); experiment: as above; conditions: 10 days
How it was run: as §1

[12] = tested on: ryegrass, Italian (italian ryegrass, Lolium multiflorum); experiment: Test A postemergence application, visual injury rating 0-100
How it was run: as §1

[13] = tested on: blackgrass (Alopecurus myosuroides); experiment: as above
How it was run: as §1

[14] = tested on: green foxtail (Setaria viridis); experiment: as above
How it was run: as §1

[15] = tested on: soybean (Glycine max); experiment: as above
How it was run: as §1

[16] = tested on: oat, wild (wild oat, Avena fatua); experiment: as above
How it was run: as §1

[17] = tested on: wheat (Triticum aestivum); experiment: as above
How it was run: as §1

[18] = tested on: ragweed (common ragweed, Ambrosia artemisiifolia); experiment: as above
How it was run: as §1

[19] = tested on: galium (catchweed bedstraw, Galium aparine); experiment: as above
How it was run: as §1

[20] = tested on: barnyardgrass (Echinochloa crus-galli); experiment: as above
How it was run: as §1

[21] = tested on: horseweed (Erigeron canadensis); experiment: as above
How it was run: as §1

[22] = tested on: kochia (Bassia scoparia); experiment: as above
How it was run: as §1

[23] = tested on: corn (Zea mays); experiment: as above
How it was run: as §1

[24] = tested on: palmer (palmer amaranth, palmer pigweed, Amaranthus palmeri); experiment: as above
How it was run: as §1

[25] = tested on: barnyardgrass (Echinochloa crusgalli); experiment: Test B flooded paddy test, visual plant response rating 0-100; conditions: 250 g ai/ha, Flood, applied to paddy water, evaluated after 13 days
How it was run: (§2)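 Treatment occurs at the 2-leaf stage by adding compound to floodwater standing 3 cm above the soil, a level kept for the whole test. Plants stay in the greenhouse 13 days before visual comparison with controls.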

[26] = tested on: rice (Oryza sativa); experiment: as above; conditions: 250 g ai/ha, Flood, applied to paddy water, evaluated after 13 days
How it was run: as §2

[27] = tested on: ducksalad (Heteranthera limosa); experiment: as above; conditions: 250 g ai/ha, Flood, applied to paddy water, evaluated after 13 days
How it was run: as §2

[28] = tested on: sedge, umbrella (small-flower umbrella sedge, Cyperus difformis); experiment: as above; conditions: 250 g ai/ha, Flood, applied to paddy water, evaluated after 13 days
How it was run: as §2

[29] = 62 g ai/ha, 0 = no effect, 100 = complete control
[30] = 62 g ai/ha, postemergence, 10 days, 0 = no effect, 100 = complete control
[31] = Postemergence, 16 g ai/ha, greenhouse 10 days, 0 no effect, 100 complete control

For `CC(C)COC(=O)C1=CCC(NC(=O)C2(C)CN(c3cc(Cl)cc(Cl)c3)C(=O)O2)C1` (stereo not shown) [Compound 156], the “Ryegrass, Italian plant response rating” value ([1]; 16 g ai/ha, 0 to 100 scale) was 0, the “Ryegrass, Italian plant response rating (0-100)” value [1, 29] was 30 and the “Blackgrass plant response rating” value ([2]; 16 g ai/ha, 0 to 100 scale) was 0. The “Blackgrass plant response rating (0-100)” value [2, 29] was 30, the “Foxtail, Green plant response rating” value ([3]; 16 g ai/ha, 0 to 100 scale) was 40 and the “Foxtail, Green plant response rating (0-100)” value [3, 29] was 90. For the same molecule, the “Soybean plant response rating” value ([4]; 16 g ai/ha, 0 to 100 scale) was 0, the “Soybean plant response rating (0-100)” value [4, 29] was 0 and the “Oat, Wild plant response rating” value ([5]; 16 g ai/ha, 0 to 100 scale) was 0. For the same molecule, the “Oat, Wild plant response rating (0-100)” value [5, 29] was 0, the “Wheat plant response rating” value ([6]; 16 g ai/ha, 0 to 100 scale) was 10 and the “Wheat plant response rating (0-100)” value [6, 29] was 50. The “Ragweed plant response rating” value ([7]; 16 g ai/ha, 0 to 100 scale) was 0, the “Ragweed plant response rating (0-100)” value [7, 29] was 0 and the “Barnyardgrass plant response rating” value ([8]; 16 g ai/ha, 0 to 100 scale) was 0. For the same molecule, the “Barnyardgrass plant response rating (0-100)” value [8, 29] was 50, the “Kochia plant response rating” value ([9]; 16 g ai/ha, 0 to 100 scale) was 20 and the “Kochia plant response rating (0-100)” value [9, 29] was 70. The “Corn plant response rating” value ([10]; 16 g ai/ha, 0 to 100 scale) was 0, the “Corn plant response rating (0-100)” value [10, 29] was 50 and the “Pigweed, Palmer plant response rating” value ([11]; 16 g ai/ha, 0 to 100 scale) was 20. The “Pigweed, Palmer plant response rating (0-100)” value [11, 29] was 80, the “Ryegrass, Italian plant response rating (0-100)” value [12, 30] was 70 and the “Ryegrass, Italian plant response rating (0 to 100 scale)” value [12, 31] was 60. For the same molecule, the “Blackgrass plant response rating (0-100)” value [13, 30] was 90, the “Blackgrass plant response rating (0 to 100 scale)” value [13, 31] was 70 and the “Foxtail, Green plant response rating (0-100)” value [14, 30] was 90. For the same molecule, the “Foxtail, Green plant response rating (0 to 100 scale)” value [14, 31] was 80, the “Soybean plant response rating (0-100)” value [15, 30] was 60 and the “Soybean plant response rating (0 to 100 scale)” value [15, 31] was 50. For the same molecule, the “Oat, Wild plant response rating (0-100)” value [16, 30] was 70, the “Oat, Wild plant response rating (0 to 100 scale)” value [16, 31] was 20 and the “Wheat plant response rating (0-100)” value [17, 30] was 70. The “Wheat plant response rating (0 to 100 scale)” value [17, 31] was 50, the “Ragweed plant response rating (0-100)” value [18, 30] was 50 and the “Ragweed plant response rating (0 to 100 scale)” value [18, 31] was 30. The “Galium plant response rating (0-100)” value [19, 30] was 80, the “Galium plant response rating (0 to 100 scale)” value [19, 31] was 80 and the “Barnyardgrass plant response rating (0-100)” value [20, 30] was 100. The “Barnyardgrass plant response rating (0 to 100 scale)” value [20, 31] was 100, the “Horseweed plant response rating (0-100)” value [21, 30] was 80 and the “Horseweed plant response rating (0 to 100 scale)” value [21, 31] was 30. The “Kochia plant response rating (0-100)” value [22, 30] was 80, the “Kochia plant response rating (0 to 100 scale)” value [22, 31] was 80 and the “Corn plant response rating (0-100)” value [23, 30] was 100. For the same molecule, the “Corn plant response rating (0 to 100 scale)” value [23, 31] was 90, the “Pigweed, Palmer plant response rating (0-100)” value [24, 30] was 90 and the “Pigweed, Palmer plant response rating (0 to 100 scale)” value [24, 31] was 90. For the same molecule, the “Plant response rating, Barnyardgrass (0 to 100 scale, 0 is no effect and 100 is complete control)” value [25] was 55, the “Plant response rating, Rice (0 to 100 scale, 0 is no effect and 100 is complete control)” value [26] was 45 and the “Plant response rating, Ducksalad (0 to 100 scale, 0 is no effect and 100 is complete control)” value [27] was 75. The “Plant response rating, Sedge, Umbrella (0 to 100 scale, 0 is no effect and 100 is complete control)” value [28] was 90.
